From patent US12404232B2, “Compounds and compositions for intracellular delivery of therapeutic agents” (ModernaTX, Inc., priority 2015, dated 2025) come the findings set out here.

The assay concerns mice. The assay can be described thus: Luc expression (bioluminescence, total flux) after intravenous administration to mice. Format: in vivo. Particulars: for AUC (p/s*h): Luc total flux (Table 3D); for 6 h Lipid/MC3 G.M. Luc Expression / AUC (h*p/s): i.v. administration; for 6 h Lipid/MC3 G.M. Luc Expression: geometric mean; for AUC (h*p/s): total Luc flux (Table 3C). Here is the method:
In order to monitor how effectively various nanoparticle compositions deliver therapeutic and/or prophylactics to targeted cells, different nanoparticle compositions including a particular therapeutic and/or prophylactic (for example, a modified or naturally occurring RNA such as an mRNA) are prepared and administered to rodent populations. Mice are intravenously, intramuscularly, intraarterially, or intratumorally administered a single dose including a nanoparticle composition with a formulation such as those provided in Example 3. In some instances, mice may be made to inhale doses. Dose sizes may range from 0.001 mg/kg to 10 mg/kg, where 10 mg/kg describes a dose including 10 mg of a therapeutic and/or prophylactic in a nanoparticle composition for each 1 kg of body mass of the mouse. A control composition including PBS may also be employed.
Upon administration of nanoparticle compositions to mice, dose delivery profiles, dose responses, and toxicity of particular formulations and doses thereof can be measured by enzyme-linked immunosorbent assays (ELISA), bioluminescent imaging, or other methods. For nanoparticle compositions including mRNA, time courses of protein expression can also be evaluated. Samples collected from the rodents for evaluation may include blood, sera, and tissue (for example, muscle tissue from the site of an intramuscular injection and internal tissue); sample collection may involve sacrifice of the animals.
The efficacy of the nanoparticle compositions presented in Table 1A was evaluated with a bioluminescence study. Formulations were administered intravenously to mice (n=6) at a dosage of 0.5 mg/kg (mpk) and bioluminescence measured at 3, 6, and 24 hour time points. The standard MC3 formulation and, in some instances, a control (e.g., a PBS control) were evaluated for comparison. […] In general, flux decreased as time progressed to less than 10% of the initial flux.
The total flux (measured by area under the curve, AUC) induced by administration of a formulation including a given lipid relative to that induced by administration of a formulation including MC3 was also measured for several lipids.
The tolerability and efficacy of nanoparticle compositions to non-human primates was also investigated using sample formulations including Compounds 18, 25, 26, and 48 and MC3 to determine if these compounds are differentiated in terms of protein expression. The formulations were prepared according to the standard MC3 formulation described above and included an hEPO mRNA. Table 30 includes details of the compositions tested, while Table 31 summarizes the relative expression of Luc and hEPO mRNA in mice and rats. Expression was measured 6 hours after administration.

Molecules are shown by their SMILES.

Consider `CCCCCCCCCC(=O)OCCCCCCCN(CCO)CCCCCCCC(=O)OC(CCCCCCCC)CCCCCCCC` [Compound 96, 7-((8-(Heptadecan-9-yloxy)-8-oxooctyl)(2-hydroxyethyl)amino)heptyl decanoate], for which the “AUC (p/s*h)” value came out at 1.209E+012 p/s*h.
On the same count and under the same terms, next, `CCCCCCCCCC(=O)OCCCCCCCN(CCO)CCCCCCCOC(=O)C(CCCCCCCC)CCCCCCCC` [Compound 151, 7-((7-(Decanoyloxy)heptyl)(2-hydroxyethyl)amino)heptyl 2-octyldecanoate]: 7.010E+011 p/s*h.
For `CCCCCCCCOP(=O)(OCCCCCCCC)OCCCCCCCN(CCO)CCCCCCCC(=O)OC(C)CCCCCCCC` (stereo not drawn) [Compound 132, Decan-2-yl 8-((7-((bis(octyloxy)phosphoryl)oxy)heptyl)(2-hydroxyethyl)amino)octanoate], the “6 h Lipid/MC3 G.M. Luc Expression” value turned out to be 0.112 and the “AUC (h*p/s)” value turned out to be 1.75E+10 h*p/s.
Taken in the same sequence, the figures for `CCCCCCCCCOC(=O)CCCCCCCN(CCCCCCCC(=O)OC(CCCCCCCC)CCCCCCCC)CCN1CCN(C)CC1` [Compound 101, Heptadecan-9-yl 8-((2-(4-methylpiperazin-1-yl)ethyl)(8-(nonyloxy)-8-oxooctyl)amino)octanoate] were 0.011 and 1.8E+09 h*p/s.
Taken in the same sequence, the figures for `CCCCCCCCCOC(=O)CCCCCCCN(CCCCCCCC(=O)OC(CCCCCCCC)CCCCCCCC)CCN1CCOCC1` [Compound 103, Heptadecan-9-yl 8-((2-morpholinoethyl)(8-(nonyloxy)-8-oxooctyl)amino)octanoate] were 0.171 and 2.4E+10 h*p/s.
Taken in the same sequence, the figures for `CCCCCCCCCOC(=O)CCCCCCCN(CCO)CCCCCCCCCOC(=O)C(CCCCCC)CCCCCCCC` (stereo not drawn) [Compound 134, 9-((2-Hydroxyethyl)(8-(nonyloxy)-8-oxooctyl)amino)nonyl 2-hexyldecanoate] were 3.27 and 3.43E+11 h*p/s.
Take `CCCCCCCCC(CCCCCCCC)OC(=O)CCCCCCCN(C)CCCCCCCCCC(=O)OCCCCCCC` [Compound 149, Heptyl 10-((8-(heptadecan-9-yloxy)-8-oxooctyl)(methyl)amino)decanoate]: the “AUC (p/s*h)” value is reported as 1.057E+011 p/s*h.
In the case of `CCCCCCCCC(CCCCCCCC)OC(=O)CCCCCCCN(CCO)CCCCCC(=O)N(C)CCCCCCCC` [Compound 146, Heptadecan-9-yl 8-((2-hydroxyethyl)(6-(methyl(octyl)amino)-6-oxohexyl)amino)octanoate], the “6 h Lipid/MC3 G.M. Luc Expression” value worked out at 0.012 and the “AUC (h*p/s)” value is recorded as 1.04E+09 h*p/s.
For `CCCCCCCCC(CCCCCCCC)OC(=O)CCCCCCCN(C)CCCCCCCCCCCC(=O)OCCCCC` [Compound 150, Pentyl 12-((8-(heptadecan-9-yloxy)-8-oxooctyl)(methyl)amino)dodecanoate], the “AUC (p/s*h)” value worked out at 2.704E+011 p/s*h.
On the same count and under the same terms, next, `CCCCCCCCC(CCCCCCCC)OC(=O)CCCCCCCN(CCO)CCCCCCCC(=O)OCC(CCCCCCC)OC` (stereo not drawn) [Compound 148, Heptadecan-9-yl 8-((2-hydroxyethyl)(8-((2-methoxynonyl)oxy)-8-oxooctyl)amino)octanoate]: 4.965E+011 p/s*h; `CCCCCCCCCOC(=O)CCCCCCCN(CCO)CCCCCCC/C=C\C(CCCCCCCC)CCCCCCCC` [Compound 152, Nonyl (Z)-8-((2-hydroxyethyl)(10-octyloctadec-8-en-1-yl)amino)octanoate]: 2.855E+010 p/s*h.
Turning to `CCCCCCCCC(CCCCCCCC)OC(=O)CCCCCCCN(CCO)CCCCCCCC(=O)OC1CCC(CCCCC)CC1` (stereo not drawn) [Compound 66, Heptadecan-9-yl 8-((2-hydroxyethyl)(8-oxo-8-((4-pentylcyclohexyl)oxy)octyl)amino)octanoate], the “6 h Lipid/MC3 G.M. Luc Expression” value was 5.23 and the “AUC (h*p/s)” value came to 6.76E+11 h*p/s.
In the case of `CCCCCCCCCOC(=O)CCCCCCCN(CCO)CCN(CCO)CCCCCCCC(=O)OC(CCCCCCCC)CCCCCCCC` [Compound 159, Heptadecan-9-yl 8-((2-hydroxyethyl)(2-((2-hydroxyethyl)(8-(nonyloxy)-8-oxooctyl)amino)ethyl)amino)octanoate], the “AUC (p/s*h)” value was 1.355E+008 p/s*h.
For the molecule `CCCCCCCCCOC(=O)CCCCCCCN(CCO)CCCCCCCOP(=O)(OCCCCCCCC)OCCCCCCCC` [Compound 131, Nonyl 8-((7-((bis(octyloxy)phosphoryl)oxy)heptyl)(2-hydroxyethyl)amino)octanoate], the “6 h Lipid/MC3 G.M. Luc Expression” value stood at 1.27 and the “AUC (h*p/s)” value was 9.29E+10 h*p/s.
The like results for `CCCCCCCCC(CCCCCCCC)OC(=O)CCCCCCCN(CCO)CCCCCCCC(=O)N(C)CCCCCCCC` [Compound 145, Heptadecan-9-yl 8-((2-hydroxyethyl)(8-(methyl(octyl)amino)-8-oxooctyl)amino)octanoate] were, in that order, 0.979 and 8.1E+10 h*p/s.
The like results for `CCCCCCCCC(C)OC(=O)CCCCCCCN(CCO)CCCCCCCOC(=O)C(CCCCCCCC)CCCCCCCC` (stereo not drawn) [Compound 135, 7-((8-(Decan-2-yloxy)-8-oxooctyl)(2-hydroxyethyl)amino)heptyl 2-octyldecanoate] were, in that order, 10.5 and 1.25E+12 h*p/s.
As for `CCCCCCCCC(CCCCCCCC)OC(=O)CCCCCCCN(CCO)CCCCCCCC(=O)OC(C)(C)C` [Compound 155, tert-Butyl 8-((8-(heptadecan-9-yloxy)-8-oxooctyl)(2-hydroxyethyl)amino)octanoate], the “AUC (p/s*h)” value amounted to 1.266E+011 p/s*h.
On the same count and under the same terms, next, `CCCCCCCCCOC(=O)CCCCCCCN(CCCCCCCC(=O)OC(CCCCCCCC)CCCCCCCC)CCOCCO` [Compound 154, Heptadecan-9-yl 8-((2-(2-hydroxyethoxy)ethyl)(8-(nonyloxy)-8-oxooctyl)amino)octanoate]: 5.560E+010 p/s*h.
Turning to `CCCCCCCCC(CCCCCC)C(=O)OCCCCCCCCCN(CCO)CCCCCCCCCOC(=O)C(CCCCCC)CCCCCCCC` (stereo not drawn) [Compound 133, ((2-Hydroxyethyl)azanediyl)bis(nonane-9,1-diyl)bis(2-hexyldecanoate)], the “6 h Lipid/MC3 G.M. Luc Expression” value amounted to 4.18 and the “AUC (h*p/s)” value worked out at 3.62E+11 h*p/s.
In the case of `CCCCCCCCCOC(=O)CCCCCCCN(CCO)CCCCCCCC(=O)OC(C)(C)C` [Compound 158, tert-Butyl 8-((2-hydroxyethyl)(8-(nonyloxy)-8-oxooctyl)amino)octanoate], the “AUC (p/s*h)” value was 1.211E+007 p/s*h.
Still for that read-out and setting: next, `CCCCCCCCCOC(=O)CCCCCCCN(CCO)CCCCCCCCCC(CCCCCCCC)CCCCCCCC` [Compound 153, Nonyl 8-((2-hydroxyethyl)(10-octyloctadecyl)amino)octanoate]: 2.697E+011 p/s*h.
Turning to `CCCCCCCCCOC(=O)CCCCCCCN(CCO)CCCCCCCCCC(=O)OC(CCCCCC)CCCCCC` [Compound 147, Tridecan-7-yl 10-((2-hydroxyethyl)(8-(nonyloxy)-8-oxooctyl)amino)decanoate], the “6 h Lipid/MC3 G.M. Luc Expression” value is 8.13 and the “AUC (h*p/s)” value is 5.63E+11 h*p/s.
